In PMC8333062, “Chemical tools for epichaperome-mediated interactome dysfunctions of the central nervous system” (Nature Communications, 2021):
Where two headings read alike, the source gives them in different places.

How the values were obtained:
Assay in all cases: scanEDGE off-target screen
Format in all cases: binding
[1] = target: T1, 97 kinases (Homo sapiens, UniProt O00444); details: read-out: %Ctrl PLK4
T1 construct: purchased Ambit Biosciences (scanEDGE / KINOMEscan) scanEDGE 97 kinase panel; host or cells: T7 phage in E. coli BL21-derived host; remaining kinases in HEK-293 cells

[2] = target: T2, 97 kinases (Homo sapiens, UniProt O14920); details: read-out: %Ctrl IKK-beta
T2 construct: purchased Ambit Biosciences (scanEDGE / KINOMEscan) scanEDGE 97 kinase panel; host or cells: T7 phage in E. coli BL21-derived host; remaining kinases in HEK-293 cells
T2 sequence (O14920 whole entry): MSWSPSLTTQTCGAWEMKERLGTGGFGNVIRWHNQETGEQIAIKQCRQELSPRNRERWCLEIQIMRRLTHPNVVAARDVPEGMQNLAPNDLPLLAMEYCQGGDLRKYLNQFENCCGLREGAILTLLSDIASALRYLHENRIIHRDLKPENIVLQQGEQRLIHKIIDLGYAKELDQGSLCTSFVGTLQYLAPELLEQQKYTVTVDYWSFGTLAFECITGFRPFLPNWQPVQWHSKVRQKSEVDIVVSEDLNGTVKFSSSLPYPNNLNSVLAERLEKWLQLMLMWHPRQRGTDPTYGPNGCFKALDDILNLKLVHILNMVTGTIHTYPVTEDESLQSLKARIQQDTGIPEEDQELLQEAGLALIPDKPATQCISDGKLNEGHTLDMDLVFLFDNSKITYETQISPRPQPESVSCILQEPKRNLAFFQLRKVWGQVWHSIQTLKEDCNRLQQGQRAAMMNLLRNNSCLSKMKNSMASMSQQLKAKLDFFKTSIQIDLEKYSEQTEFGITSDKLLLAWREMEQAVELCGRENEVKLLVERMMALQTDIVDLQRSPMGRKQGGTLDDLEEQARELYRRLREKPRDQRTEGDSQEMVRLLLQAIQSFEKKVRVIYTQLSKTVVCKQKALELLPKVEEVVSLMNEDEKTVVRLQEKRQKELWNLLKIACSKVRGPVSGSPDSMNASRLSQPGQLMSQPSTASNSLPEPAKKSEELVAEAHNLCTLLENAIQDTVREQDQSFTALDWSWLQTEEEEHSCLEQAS

[3] = target: T3, 97 kinases (Homo sapiens, UniProt O60674); details: read-out: %Ctrl JAK2(JH1domain-catalytic)
T3 construct: purchased Ambit Biosciences (scanEDGE / KINOMEscan) scanEDGE 97 kinase panel; host or cells: T7 phage in E. coli BL21-derived host; remaining kinases in HEK-293 cells

[4] = target: T4, 97 kinases (Homo sapiens, UniProt O75116); details: read-out: %Ctrl ROCK2
T4 construct: purchased Ambit Biosciences (scanEDGE / KINOMEscan) scanEDGE 97 kinase panel; host or cells: T7 phage in E. coli BL21-derived host; remaining kinases in HEK-293 cells

[5] = target: T5, 97 kinases (Homo sapiens, UniProt P00519)
T5 construct: purchased Ambit Biosciences (scanEDGE / KINOMEscan) scanEDGE 97 kinase panel; host or cells: T7 phage in E. coli BL21-derived host; remaining kinases in HEK-293 cells
T5 sequence (P00519 whole entry): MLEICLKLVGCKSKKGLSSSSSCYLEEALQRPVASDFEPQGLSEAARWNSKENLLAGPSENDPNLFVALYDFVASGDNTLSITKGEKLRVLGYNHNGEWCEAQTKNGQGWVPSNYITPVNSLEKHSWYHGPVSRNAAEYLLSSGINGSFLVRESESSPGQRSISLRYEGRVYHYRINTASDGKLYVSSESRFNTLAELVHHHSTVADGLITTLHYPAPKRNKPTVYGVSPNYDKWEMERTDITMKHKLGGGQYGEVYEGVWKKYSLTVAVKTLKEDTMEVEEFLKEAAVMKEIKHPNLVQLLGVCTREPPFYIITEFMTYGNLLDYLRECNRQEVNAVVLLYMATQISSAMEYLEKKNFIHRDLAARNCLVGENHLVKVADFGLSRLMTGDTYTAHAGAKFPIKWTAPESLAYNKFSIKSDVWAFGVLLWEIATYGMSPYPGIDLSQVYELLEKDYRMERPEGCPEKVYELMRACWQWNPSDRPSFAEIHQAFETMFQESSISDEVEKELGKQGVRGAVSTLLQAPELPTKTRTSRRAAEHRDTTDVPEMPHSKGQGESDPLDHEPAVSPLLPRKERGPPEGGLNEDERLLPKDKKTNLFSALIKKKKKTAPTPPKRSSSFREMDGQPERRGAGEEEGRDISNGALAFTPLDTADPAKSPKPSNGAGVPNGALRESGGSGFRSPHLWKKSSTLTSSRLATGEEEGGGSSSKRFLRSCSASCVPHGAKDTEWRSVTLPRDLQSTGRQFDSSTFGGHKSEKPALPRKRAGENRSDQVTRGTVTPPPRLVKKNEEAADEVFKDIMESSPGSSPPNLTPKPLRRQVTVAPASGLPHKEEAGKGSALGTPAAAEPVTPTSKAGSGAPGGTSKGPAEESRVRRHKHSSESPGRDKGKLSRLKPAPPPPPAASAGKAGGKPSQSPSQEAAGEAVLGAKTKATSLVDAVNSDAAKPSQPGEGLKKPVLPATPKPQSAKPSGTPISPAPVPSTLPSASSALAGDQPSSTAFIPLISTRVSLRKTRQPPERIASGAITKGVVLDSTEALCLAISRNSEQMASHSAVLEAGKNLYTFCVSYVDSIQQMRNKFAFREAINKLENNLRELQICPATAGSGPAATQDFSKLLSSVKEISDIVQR

[6] = target: T6, 97 kinases (Homo sapiens, UniProt P00533); details: read-out: %Ctrl EGFR
T6 construct: purchased Ambit Biosciences (scanEDGE / KINOMEscan) scanEDGE 97 kinase panel; host or cells: T7 phage in E. coli BL21-derived host; remaining kinases in HEK-293 cells

[7] = target: T7, 97 kinases (Homo sapiens, UniProt P00533, L858R); details: read-out: %Ctrl EGFR(L858R)
T7 construct: purchased Ambit Biosciences (scanEDGE / KINOMEscan) scanEDGE 97 kinase panel; host or cells: T7 phage in E. coli BL21-derived host; remaining kinases in HEK-293 cells

[8] = target: T8, 97 kinases (Homo sapiens, UniProt P04049); details: read-out: %Ctrl RAF1
T8 construct: purchased Ambit Biosciences (scanEDGE / KINOMEscan) scanEDGE 97 kinase panel; host or cells: T7 phage in E. coli BL21-derived host; remaining kinases in HEK-293 cells

[9] = target: T9, 97 kinases (Homo sapiens, UniProt P08069); details: read-out: %Ctrl IGF1R
T9 construct: purchased Ambit Biosciences (scanEDGE / KINOMEscan) scanEDGE 97 kinase panel; host or cells: T7 phage in E. coli BL21-derived host; remaining kinases in HEK-293 cells

[10] = target: T10, 97 kinases (Homo sapiens, UniProt P10721, D816V); details: read-out: %Ctrl KIT(D816V)
T10 construct: purchased Ambit Biosciences (scanEDGE / KINOMEscan) scanEDGE 97 kinase panel; host or cells: T7 phage in E. coli BL21-derived host; remaining kinases in HEK-293 cells

[11] = target: T11, 97 kinases (Homo sapiens, UniProt P15056); details: read-out: %Ctrl BRAF
T11 construct: purchased Ambit Biosciences (scanEDGE / KINOMEscan) scanEDGE 97 kinase panel; host or cells: T7 phage in E. coli BL21-derived host; remaining kinases in HEK-293 cells

[12] = target: T12, 97 kinases (Homo sapiens, UniProt P16234); details: read-out: %Ctrl PDGFRA
T12 construct: purchased Ambit Biosciences (scanEDGE / KINOMEscan) scanEDGE 97 kinase panel; host or cells: T7 phage in E. coli BL21-derived host; remaining kinases in HEK-293 cells

[13] = target: T13, 97 kinases (Homo sapiens, UniProt P17612); details: read-out: %Ctrl PKAC-alpha
T13 construct: purchased Ambit Biosciences (scanEDGE / KINOMEscan) scanEDGE 97 kinase panel; host or cells: T7 phage in E. coli BL21-derived host; remaining kinases in HEK-293 cells

[14] = target: T14, 97 kinases (Homo sapiens, UniProt P22607); details: read-out: %Ctrl FGFR3
T14 construct: purchased Ambit Biosciences (scanEDGE / KINOMEscan) scanEDGE 97 kinase panel; host or cells: T7 phage in E. coli BL21-derived host; remaining kinases in HEK-293 cells

[15] = target: T15, 97 kinases (Homo sapiens, UniProt P24941); details: read-out: %Ctrl CDK2
T15 construct: purchased Ambit Biosciences (scanEDGE / KINOMEscan) scanEDGE 97 kinase panel; host or cells: T7 phage in E. coli BL21-derived host; remaining kinases in HEK-293 cells

[16] = target: T16, 97 kinases (Homo sapiens, UniProt P29597); details: read-out: %Ctrl TYK2(JH1domain-catalytic)
T16 construct: purchased Ambit Biosciences (scanEDGE / KINOMEscan) scanEDGE 97 kinase panel; host or cells: T7 phage in E. coli BL21-derived host; remaining kinases in HEK-293 cells

[17] = target: T17, 97 kinases (Homo sapiens, UniProt P30530); details: read-out: %Ctrl AXL
T17 construct: purchased Ambit Biosciences (scanEDGE / KINOMEscan) scanEDGE 97 kinase panel; host or cells: T7 phage in E. coli BL21-derived host; remaining kinases in HEK-293 cells

[18] = target: T18, 97 kinases (Homo sapiens, UniProt P31749); details: read-out: %Ctrl AKT1
T18 construct: purchased Ambit Biosciences (scanEDGE / KINOMEscan) scanEDGE 97 kinase panel; host or cells: T7 phage in E. coli BL21-derived host; remaining kinases in HEK-293 cells

[19] = target: T19, 97 kinases (Homo sapiens, UniProt P31751); details: read-out: %Ctrl AKT2
T19 construct: purchased Ambit Biosciences (scanEDGE / KINOMEscan) scanEDGE 97 kinase panel; host or cells: T7 phage in E. coli BL21-derived host; remaining kinases in HEK-293 cells
T19 sequence (P31751 whole entry): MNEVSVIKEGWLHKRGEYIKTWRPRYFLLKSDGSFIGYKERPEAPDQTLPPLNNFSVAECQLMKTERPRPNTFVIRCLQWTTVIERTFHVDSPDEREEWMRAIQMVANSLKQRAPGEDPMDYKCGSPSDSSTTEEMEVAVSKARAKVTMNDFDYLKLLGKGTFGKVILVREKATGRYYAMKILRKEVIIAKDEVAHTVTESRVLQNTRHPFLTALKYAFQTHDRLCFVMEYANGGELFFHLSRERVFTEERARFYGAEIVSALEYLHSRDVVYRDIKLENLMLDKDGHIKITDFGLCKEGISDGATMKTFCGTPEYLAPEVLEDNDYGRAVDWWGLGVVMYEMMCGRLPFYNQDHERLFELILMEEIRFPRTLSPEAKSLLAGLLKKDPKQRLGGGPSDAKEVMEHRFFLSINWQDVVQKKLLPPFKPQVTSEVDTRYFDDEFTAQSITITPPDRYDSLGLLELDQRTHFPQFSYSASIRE

[20] = target: T20, 97 kinases (Homo sapiens, UniProt P42336); details: read-out: %Ctrl PIK3CA
T20 construct: purchased Ambit Biosciences (scanEDGE / KINOMEscan) scanEDGE 97 kinase panel; host or cells: T7 phage in E. coli BL21-derived host; remaining kinases in HEK-293 cells

[21] = target: T21, 97 kinases (Homo sapiens, UniProt P45984); details: read-out: %Ctrl JNK2
T21 construct: purchased Ambit Biosciences (scanEDGE / KINOMEscan) scanEDGE 97 kinase panel; host or cells: T7 phage in E. coli BL21-derived host; remaining kinases in HEK-293 cells

[22] = target: T22, 97 kinases (Homo sapiens, UniProt P49137); details: read-out: %Ctrl MAPKAPK2
T22 construct: purchased Ambit Biosciences (scanEDGE / KINOMEscan) scanEDGE 97 kinase panel; host or cells: T7 phage in E. coli BL21-derived host; remaining kinases in HEK-293 cells
T22 sequence (P49137 whole entry): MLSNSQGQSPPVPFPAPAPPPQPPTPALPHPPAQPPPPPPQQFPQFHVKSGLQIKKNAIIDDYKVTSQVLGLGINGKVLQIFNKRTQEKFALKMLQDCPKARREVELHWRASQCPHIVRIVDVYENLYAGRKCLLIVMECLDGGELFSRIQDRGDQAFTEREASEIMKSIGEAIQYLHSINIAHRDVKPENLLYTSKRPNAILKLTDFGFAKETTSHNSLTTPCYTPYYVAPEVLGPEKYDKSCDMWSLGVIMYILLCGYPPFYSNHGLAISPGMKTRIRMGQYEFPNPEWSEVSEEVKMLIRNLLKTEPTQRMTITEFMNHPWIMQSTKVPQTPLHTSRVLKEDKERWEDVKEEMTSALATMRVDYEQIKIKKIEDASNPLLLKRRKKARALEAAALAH

[23] = target: T23, 97 kinases (Homo sapiens, UniProt P50613); details: read-out: %Ctrl CDK7
T23 construct: purchased Ambit Biosciences (scanEDGE / KINOMEscan) scanEDGE 97 kinase panel; host or cells: T7 phage in E. coli BL21-derived host; remaining kinases in HEK-293 cells

[24] = target: T24, 97 kinases (Homo sapiens, UniProt P53779); details: read-out: %Ctrl JNK3
T24 construct: purchased Ambit Biosciences (scanEDGE / KINOMEscan) scanEDGE 97 kinase panel; host or cells: T7 phage in E. coli BL21-derived host; remaining kinases in HEK-293 cells
T24 sequence (P53779 whole entry): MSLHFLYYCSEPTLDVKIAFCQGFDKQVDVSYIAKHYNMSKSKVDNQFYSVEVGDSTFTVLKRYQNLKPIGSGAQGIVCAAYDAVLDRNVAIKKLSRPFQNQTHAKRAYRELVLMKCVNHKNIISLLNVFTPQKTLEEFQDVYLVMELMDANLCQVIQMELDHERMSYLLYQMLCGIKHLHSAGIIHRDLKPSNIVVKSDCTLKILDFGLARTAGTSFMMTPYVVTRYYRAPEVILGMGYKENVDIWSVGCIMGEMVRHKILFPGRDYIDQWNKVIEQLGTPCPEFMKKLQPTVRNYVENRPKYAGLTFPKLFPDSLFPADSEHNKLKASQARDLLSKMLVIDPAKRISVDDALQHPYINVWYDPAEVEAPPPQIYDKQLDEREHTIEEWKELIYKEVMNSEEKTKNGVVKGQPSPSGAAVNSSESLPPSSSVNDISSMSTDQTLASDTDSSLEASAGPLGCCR

[25] = target: T25, 97 kinases (Homo sapiens, UniProt P78368); details: read-out: %Ctrl CSNK1G2
T25 construct: purchased Ambit Biosciences (scanEDGE / KINOMEscan) scanEDGE 97 kinase panel; host or cells: T7 phage in E. coli BL21-derived host; remaining kinases in HEK-293 cells

[26] = target: T26, 97 kinases (Homo sapiens, UniProt Q00536); details: read-out: %Ctrl PCTK1
T26 construct: purchased Ambit Biosciences (scanEDGE / KINOMEscan) scanEDGE 97 kinase panel; host or cells: T7 phage in E. coli BL21-derived host; remaining kinases in HEK-293 cells

[27] = target: T27, 97 kinases (Homo sapiens, UniProt Q02750); details: read-out: %Ctrl MEK1
T27 construct: purchased Ambit Biosciences (scanEDGE / KINOMEscan) scanEDGE 97 kinase panel; host or cells: T7 phage in E. coli BL21-derived host; remaining kinases in HEK-293 cells

[28] = target: T28, 97 kinases (Homo sapiens, UniProt Q02763); details: read-out: %Ctrl TIE2
T28 construct: purchased Ambit Biosciences (scanEDGE / KINOMEscan) scanEDGE 97 kinase panel; host or cells: T7 phage in E. coli BL21-derived host; remaining kinases in HEK-293 cells

[29] = target: T29, 97 kinases (Homo sapiens, UniProt Q13873); details: read-out: %Ctrl BMPR2
T29 construct: purchased Ambit Biosciences (scanEDGE / KINOMEscan) scanEDGE 97 kinase panel; host or cells: T7 phage in E. coli BL21-derived host; remaining kinases in HEK-293 cells
T29 sequence (Q13873 27-1038): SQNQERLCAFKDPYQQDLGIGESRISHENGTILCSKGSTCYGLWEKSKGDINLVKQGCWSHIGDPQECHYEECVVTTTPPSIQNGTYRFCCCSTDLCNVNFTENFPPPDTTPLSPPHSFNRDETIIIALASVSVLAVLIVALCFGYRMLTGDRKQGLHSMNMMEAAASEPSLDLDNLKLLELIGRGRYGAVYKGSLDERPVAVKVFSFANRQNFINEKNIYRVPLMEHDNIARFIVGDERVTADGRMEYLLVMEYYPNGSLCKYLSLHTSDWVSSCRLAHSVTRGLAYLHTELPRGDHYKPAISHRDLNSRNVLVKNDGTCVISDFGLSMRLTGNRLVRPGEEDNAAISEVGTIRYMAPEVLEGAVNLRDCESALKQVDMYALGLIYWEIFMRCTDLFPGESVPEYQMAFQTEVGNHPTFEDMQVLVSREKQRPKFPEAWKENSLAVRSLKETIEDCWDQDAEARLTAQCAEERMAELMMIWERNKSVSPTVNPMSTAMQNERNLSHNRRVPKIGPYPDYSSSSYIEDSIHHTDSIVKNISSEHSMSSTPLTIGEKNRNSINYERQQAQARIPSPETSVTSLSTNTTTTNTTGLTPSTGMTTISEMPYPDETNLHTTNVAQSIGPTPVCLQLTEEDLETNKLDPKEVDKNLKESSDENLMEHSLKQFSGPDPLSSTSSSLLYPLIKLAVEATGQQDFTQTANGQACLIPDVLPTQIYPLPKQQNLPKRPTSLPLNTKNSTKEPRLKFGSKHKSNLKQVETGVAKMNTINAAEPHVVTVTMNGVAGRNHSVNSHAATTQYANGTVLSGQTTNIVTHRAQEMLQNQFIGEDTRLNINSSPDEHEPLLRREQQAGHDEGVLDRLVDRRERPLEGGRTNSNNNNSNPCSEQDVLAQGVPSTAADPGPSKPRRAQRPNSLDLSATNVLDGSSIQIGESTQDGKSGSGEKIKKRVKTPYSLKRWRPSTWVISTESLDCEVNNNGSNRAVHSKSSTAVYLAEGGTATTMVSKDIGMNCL

[30] = target: T30, 97 kinases (Homo sapiens, UniProt Q15303); details: read-out: %Ctrl ERBB4
T30 construct: purchased Ambit Biosciences (scanEDGE / KINOMEscan) scanEDGE 97 kinase panel; host or cells: T7 phage in E. coli BL21-derived host; remaining kinases in HEK-293 cells

[31] = target: T31, 97 kinases (Homo sapiens, UniProt Q15759); details: read-out: %Ctrl p38-beta
T31 construct: purchased Ambit Biosciences (scanEDGE / KINOMEscan) scanEDGE 97 kinase panel; host or cells: T7 phage in E. coli BL21-derived host; remaining kinases in HEK-293 cells
T31 sequence (Q15759 whole entry): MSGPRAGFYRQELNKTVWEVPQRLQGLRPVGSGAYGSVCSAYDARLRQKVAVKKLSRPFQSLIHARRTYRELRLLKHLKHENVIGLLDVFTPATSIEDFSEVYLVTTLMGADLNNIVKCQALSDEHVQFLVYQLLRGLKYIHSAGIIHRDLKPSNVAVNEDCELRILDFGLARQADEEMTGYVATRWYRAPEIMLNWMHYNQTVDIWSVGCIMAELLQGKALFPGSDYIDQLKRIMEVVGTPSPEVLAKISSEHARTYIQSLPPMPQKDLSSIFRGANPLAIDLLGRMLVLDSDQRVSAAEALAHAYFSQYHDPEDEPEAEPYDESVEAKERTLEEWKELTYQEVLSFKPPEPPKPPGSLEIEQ

[32] = target: T32, 97 kinases (Homo sapiens, UniProt Q15831); details: read-out: %Ctrl LKB1
T32 construct: purchased Ambit Biosciences (scanEDGE / KINOMEscan) scanEDGE 97 kinase panel; host or cells: T7 phage in E. coli BL21-derived host; remaining kinases in HEK-293 cells
T32 sequence (Q15831 whole entry): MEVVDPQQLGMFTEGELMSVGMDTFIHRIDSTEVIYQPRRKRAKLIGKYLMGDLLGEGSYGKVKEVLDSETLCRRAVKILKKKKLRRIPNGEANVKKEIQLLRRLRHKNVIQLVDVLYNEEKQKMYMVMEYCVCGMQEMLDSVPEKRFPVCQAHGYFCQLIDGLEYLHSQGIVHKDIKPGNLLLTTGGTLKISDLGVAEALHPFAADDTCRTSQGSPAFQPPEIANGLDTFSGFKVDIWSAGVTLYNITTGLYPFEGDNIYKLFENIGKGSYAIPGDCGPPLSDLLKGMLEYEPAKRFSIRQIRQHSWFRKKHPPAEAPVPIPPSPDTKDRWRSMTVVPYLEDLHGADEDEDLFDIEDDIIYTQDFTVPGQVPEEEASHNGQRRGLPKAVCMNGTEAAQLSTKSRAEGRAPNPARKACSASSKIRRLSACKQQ

[33] = target: T33, 97 kinases (Homo sapiens, UniProt Q86V86); details: read-out: %Ctrl PIM3
T33 construct: purchased Ambit Biosciences (scanEDGE / KINOMEscan) scanEDGE 97 kinase panel; host or cells: T7 phage in E. coli BL21-derived host; remaining kinases in HEK-293 cells

[34] = target: T34, 97 kinases (Homo sapiens, UniProt Q8IYT8); details: read-out: %Ctrl ULK2
T34 construct: purchased Ambit Biosciences (scanEDGE / KINOMEscan) scanEDGE 97 kinase panel; host or cells: T7 phage in E. coli BL21-derived host; remaining kinases in HEK-293 cells

[35] = target: T35, 97 kinases (Homo sapiens, UniProt Q9BUB5); details: read-out: %Ctrl MKNK1
T35 construct: purchased Ambit Biosciences (scanEDGE / KINOMEscan) scanEDGE 97 kinase panel; host or cells: T7 phage in E. coli BL21-derived host; remaining kinases in HEK-293 cells

[36] = target: T36, 97 kinases (Homo sapiens, UniProt Q9BVS4); details: read-out: %Ctrl RIOK2
T36 construct: purchased Ambit Biosciences (scanEDGE / KINOMEscan) scanEDGE 97 kinase panel; host or cells: T7 phage in E. coli BL21-derived host; remaining kinases in HEK-293 cells

[37] = target: T37, 97 kinases (Homo sapiens, UniProt Q9HBH9); details: read-out: %Ctrl MKNK2
T37 construct: purchased Ambit Biosciences (scanEDGE / KINOMEscan) scanEDGE 97 kinase panel; host or cells: T7 phage in E. coli BL21-derived host; remaining kinases in HEK-293 cells

[38] = target: T38, 97 kinases (Homo sapiens, UniProt Q9UM73); details: read-out: %Ctrl ALK
T38 construct: purchased Ambit Biosciences (scanEDGE / KINOMEscan) scanEDGE 97 kinase panel; host or cells: T7 phage in E. coli BL21-derived host; remaining kinases in HEK-293 cells

CC(C)(C)CNCCn1c(Sc2cc3c(cc2I)OCO3)nc2c(N)ncnc21 [Compound 85]
remaining binding at 10 µM [1]: 89% | remaining binding at 10 µM [2]: 88% | remaining binding at 10 µM [3]: 100% | remaining binding at 10 µM [4]: 97% | remaining binding at 10 µM ([5]; read-out: %Ctrl ABL1-nonphosphorylated): 50% | remaining binding at 10 µM ([5]; read-out: %Ctrl ABL1-phosphorylated): 70% | remaining binding at 10 µM [6]: 96% | remaining binding at 10 µM [7]: 93% | remaining binding at 10 µM [8]: 74% | remaining binding at 10 µM [9]: 100% | remaining binding at 10 µM [10]: 93% | remaining binding at 10 µM [11]: 100% | remaining binding at 10 µM [12]: 100% | remaining binding at 10 µM [13]: 87% | remaining binding at 10 µM [14]: 95% | remaining binding at 10 µM [15]: 98% | remaining binding at 10 µM [16]: 99% | remaining binding at 10 µM [17]: 100% | remaining binding at 10 µM [18]: 93% | remaining binding at 10 µM [19]: 87% | remaining binding at 10 µM [20]: 87% | remaining binding at 10 µM [21]: 93% | remaining binding at 10 µM [22]: 96% | remaining binding at 10 µM [23]: 79% | remaining binding at 10 µM [24]: 100% | remaining binding at 10 µM [25]: 100% | remaining binding at 10 µM [26]: 100% | remaining binding at 10 µM [27]: 99% | remaining binding at 10 µM [28]: 100% | remaining binding at 10 µM [29]: 97% | remaining binding at 10 µM [30]: 100% | remaining binding at 10 µM [31]: 89% | remaining binding at 10 µM [32]: 81% | remaining binding at 10 µM [33]: 91% | remaining binding at 10 µM [34]: 94% | remaining binding at 10 µM [35]: 100% | remaining binding at 10 µM [36]: 94% | remaining binding at 10 µM [37]: 93% | remaining binding at 10 µM [38]: 93%
